# Patent US20110053773A1, “METHODS OF IMPROVING NUTRITIONAL VALUE OF PLANTS” (UNIVERSITY OF TENNESSEE RESEARCH FOUNDATION, priority 2009, published 2011)
# Tests used:
# Assay type in all cases: in vivo
# kale 'Red Russian' = assay: Content analysis of kale: protein, amino acids, fiber, fatty acids, minerals (Example 4, Tables 12-14); details: 28 DA-A
# Protocol: (§1) Greenhouse and laboratory studies were conducted to ascertain the tolerance and nutritional quality differences following postemergence applications of the insecticide chlorpyrifos, the fungicide chlorothalonil, the PGRs mepiquat-chloride and paclobutrazol, and the safeners napthalic anhydride and isoxadifen-ethyl on kale ‘Red Russian’ and basil ‘Genovese’. Visual injury was rated based on general phytotoxicity, chlorosis, and visual stunting and each measurement was based on a percent scale from 0 to 100 where 0 equals no visual response and 100 equals complete plant death. Kale and basil were both harvested approximately 4 weeks after treatments and plants were pooled over replicates for content analysis of crude protein, crude amino acid content, acid detergent fiber, neutral detergent fiber, total fatty acids, and/or key mineral content (including Na, Ca, P, Mg, K, Fe, Mn, Zn, and Cu). In addition, the amounts of key individual amino acids (aspartic acid, threonine, glutamic acid, proline, glycine, cysteine, valine, leucine, isoleucine, methionine, and lysine) and composite classifications of fatty acid (saturated fatty acids, monounsaturated fatty acids, polyunsaturated fatty acids) were also analyzed from these sub-samples for kale (Tables 10-14).
# basil 'Genovese' = assay: Content analysis of basil: protein, minerals (Example 4, Tables 10-11); details: 28 DA-A
# Procedure, shortened: (§2)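 Plants were harvested about 4 weeks post-treatment and pooled across replicates to analyse protein, amino acids, fiber, fatty acids and minerals (Na, Ca, P, Mg, K, Fe, Mn, Zn, Cu). Treatments were postemergence insecticide, fungicide, PGRs and safeners. Visual injury scored 0–100% (phytotoxicity, chlorosis, stunting).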
# basil ‘Genovese’ = assay: Yield, fresh weight of basil after insecticide, fungicide, PGRs and safeners (Example 4, Table 10); details: DA-A, check 31.8
# Procedure, shortened: as §2
# kale ‘Red Russian’ = assay: Yield, fresh weight of kale after insecticide, fungicide and PGRs (Example 4, Table 12); details: 28 DA-A, Untreated Check 106.9
# Protocol: as §1
# [1] = rates g ai/ha: chlropyrifos 1120, chlorothalonil 2630, paclobutrazol 3.23, mepiquat-chloride 12.3, + NIS 0.25 % v/v
# [2] = rates g ai/ha: chlropyrifos 3370, chlorothalonil 7900, paclobutrazol 9.7, mepiquat-chloride 37, + NIS 0.25 % v/v
# [3] = second-listed rate g ai/ha: chlropyrifos ###, chlorothalonil ###, paclobutrazol 9.7, mepiquat-chloride 37, + NIS 0.3 % v/v
# [4] = rates g ai/ha: chlroprifos 3370, chlorothalonil 7900, paclobutrazol 9.7, mepiquat-chloride 37, Isoxadifen 16, Napthalic anhydride 527, + NIS 0.25 % v/v
# [5] = rates g ai/ha: chlropyrifos 1120, chlorothalonil 2630, paclobutrazol 3.23, mepiquat-chloride 12.3, Isoxadifen 8, Napthalic anhydride 264, + NIS 0.25 % v/v
smiles,measurement,setting,value
N#Cc1c(Cl)c(Cl)c(Cl)c(C#N)c1Cl [chlorothalonil],"Potassium, Percent Increase Over the Untreated Check (on a % dry matter basis)",kale 'Red Russian'; [1],−9 % check
same,"Sodium, Percent Increase Over the Untreated Check (on a % dry matter basis)",kale 'Red Russian'; [1],4 % check
same,"Zinc, Percent Increase Over the Untreated Check (on a % dry matter basis)",kale 'Red Russian'; [1],−4 % check
same,"ADF, Percent Increase Over the Untreated Check (on a % dry matter basis)",kale 'Red Russian'; [2],0 % check
same,"Calcium, Percent Increase Over the Untreated Check (on a % dry matter basis)",kale 'Red Russian'; [2],−1 % check
same,"Copper, Percent Increase Over the Untreated Check (on a % dry matter basis)",kale 'Red Russian'; [2],6 % check
same,"Iron, Percent Increase Over the Untreated Check (on a % dry matter basis)",kale 'Red Russian'; [2],−3 % check
same,"Magnesium, Percent Increase Over the Untreated Check (on a % dry matter basis)",kale 'Red Russian'; [2],−3 % check
same,"Manganese, Percent Increase Over the Untreated Check (on a % dry matter basis)",kale 'Red Russian'; [2],4 % check
same,"NDF, Percent Increase Over the Untreated Check (on a % dry matter basis)",kale 'Red Russian'; [2],−5 % check
same,"Phosphorous, Percent Increase Over the Untreated Check (on a % dry matter basis)",kale 'Red Russian'; [2],−3 % check
same,"Potassium, Percent Increase Over the Untreated Check (on a % dry matter basis)",kale 'Red Russian'; [2],−3 % check
same,"Sodium, Percent Increase Over the Untreated Check (on a % dry matter basis)",kale 'Red Russian'; [2],23 % check
same,"Zinc, Percent Increase Over the Untreated Check (on a % dry matter basis)",kale 'Red Russian'; [2],−3 % check
same,"Alanine, Percent Increase over the Untreated Check (on a % dry matter basis)",kale 'Red Russian'; [3],−5 % check
same,"Aspartic acid, Percent Increase over the Untreated Check (on a % dry matter basis)",kale 'Red Russian'; [3],−4 % check
same,"Cysteine, Percent Increase over the Untreated Check (on a % dry matter basis)",kale 'Red Russian'; [3],−6 % check
same,"Glutamic acid, Percent Increase over the Untreated Check (on a % dry matter basis)",kale 'Red Russian'; [3],−5 % check
same,"Glycine, Percent Increase over the Untreated Check (on a % dry matter basis)",kale 'Red Russian'; [3],−7 % check
same,"Iso-leucine, Percent Increase over the Untreated Check (on a % dry matter basis)",kale 'Red Russian'; [3],−2 % check
same,"Leucine, Percent Increase over the Untreated Check (on a % dry matter basis)",kale 'Red Russian'; [3],−1 % check
same,"Lysine, Percent Increase over the Untreated Check (on a % dry matter basis)",kale 'Red Russian'; [3],−3 % check
same,"Methionine, Percent Increase over the Untreated Check (on a % dry matter basis)",kale 'Red Russian'; [3],−2 % check
same,"Proline, Percent Increase over the Untreated Check (on a % dry matter basis)",kale 'Red Russian'; [3],−3 % check
same,"Threonine, Percent Increase over the Untreated Check (on a % dry matter basis)",kale 'Red Russian'; [3],−1 % check
same,"Total Amino acids, Percent Increase over the Untreated Check (on a % dry matter basis)",kale 'Red Russian'; [3],−4 % check
same,"Total Protein, Percent Increase over the Untreated Check (on a % dry matter basis)",kale 'Red Russian'; [3],−3 % check
same,"Valine, Percent Increase over the Untreated Check (on a % dry matter basis)",kale 'Red Russian'; [3],−3 % check
same,"ADF, Percent Increase Over the Untreated Check (on a % dry matter basis)",basil 'Genovese'; [4],1 % check
same,"Calcium, Percent Increase Over the Untreated Check (on a % dry matter basis)",basil 'Genovese'; [4],−15 % check
same,"Copper, Percent Increase Over the Untreated Check (on a % dry matter basis)",basil 'Genovese'; [4],−17 % check
same,"Iron, Percent Increase Over the Untreated Check (on a % dry matter basis)",basil 'Genovese'; [4],25 % check
same,"Magnesium, Percent Increase Over the Untreated Check (on a % dry matter basis)",basil 'Genovese'; [4],−6 % check
same,"Manganese, Percent Increase Over the Untreated Check (on a % dry matter basis)",basil 'Genovese'; [4],−8 % check
same,"NDF, Percent Increase Over the Untreated Check (on a % dry matter basis)",basil 'Genovese'; [4],12 % check
same,"Phosphorous, Percent Increase Over the Untreated Check (on a % dry matter basis)",basil 'Genovese'; [4],0 % check
same,"Potassium, Percent Increase Over the Untreated Check (on a % dry matter basis)",basil 'Genovese'; [4],7 % check
same,"Protein, Percent Increase Over the Untreated Check (on a % dry matter basis)",basil 'Genovese'; [4],3 % check
same,"Sodium, Percent Increase Over the Untreated Check (on a % dry matter basis)",basil 'Genovese'; [4],50 % check
same,"Soluble protein, Percent Increase Over the Untreated Check (on a % dry matter basis)",basil 'Genovese'; [4],42 % check
same,"Zinc, Percent Increase Over the Untreated Check (on a % dry matter basis)",basil 'Genovese'; [4],−6 % check
same,"ADF, Percent Increase Over the Untreated Check (on a % dry matter basis)",basil 'Genovese'; [5],1 % check
same,"Calcium, Percent Increase Over the Untreated Check (on a % dry matter basis)",basil 'Genovese'; [5],0 % check
same,"Copper, Percent Increase Over the Untreated Check (on a % dry matter basis)",basil 'Genovese'; [5],−17 % check
same,"Iron, Percent Increase Over the Untreated Check (on a % dry matter basis)",basil 'Genovese'; [5],37 % check
same,"Magnesium, Percent Increase Over the Untreated Check (on a % dry matter basis)",basil 'Genovese'; [5],3 % check
same,"Manganese, Percent Increase Over the Untreated Check (on a % dry matter basis)",basil 'Genovese'; [5],43 % check
same,"NDF, Percent Increase Over the Untreated Check (on a % dry matter basis)",basil 'Genovese'; [5],6 % check
same,"Phosphorous, Percent Increase Over the Untreated Check (on a % dry matter basis)",basil 'Genovese'; [5],9 % check
same,"Potassium, Percent Increase Over the Untreated Check (on a % dry matter basis)",basil 'Genovese'; [5],4 % check
same,"Protein, Percent Increase Over the Untreated Check (on a % dry matter basis)",basil 'Genovese'; [5],3 % check
same,"Sodium, Percent Increase Over the Untreated Check (on a % dry matter basis)",basil 'Genovese'; [5],8 % check
same,"Soluble protein, Percent Increase Over the Untreated Check (on a % dry matter basis)",basil 'Genovese'; [5],223 % check
same,"Zinc, Percent Increase Over the Untreated Check (on a % dry matter basis)",basil 'Genovese'; [5],38 % check
same,Yield Fresh weight,basil ‘Genovese’; [5],27.5 grams
same,Yield Fresh weight,"basil ‘Genovese’; rates g ai/ha: chlropyrifos 3370, chlorothalonil 7900, paclobutrazol 9.7, mepiquat-chloride 37, Isoxadifen 16, Napthalic anhydride 527, + NIS 0.25 % v/v",25.9 grams
same,Yield Fresh weight,kale ‘Red Russian’; [1],102.5 grams
same,Yield Fresh weight,kale ‘Red Russian’; [2],107.5 grams
